# Experimental data taken from US10538485B2, “Compounds for use as therapeutic agents affecting P53 expression and/or activity” (ABIVAX, priority 2011, dated 2020).
# Experiments:
# Type in all cases: cell-based
# [1] = test system: MDA-MB231-luc-D3H2LN cells; assay: Invasion of MDA-MB231-D3H2LN cells into collagen; details: MDA-MB-231, anti-invasive effect in MDA-MB231 breast cancer cells, concentration giving 0.5 fold the effect of 10 μM Y-27632 ref. compound, read-out: 0.5 fold effect compared to 10 μM Y-27632
# Text: 13.4 Effect of Drug Compounds on Invasion of MDA-MB231-D3H2LN Cells into Collagen
# A key step in the generation of tumor metastasis is the invasion of tumor cells into the extracellular matrix, a major component of which is collagen. Therefore, the invasion of tumor cells into collagen in vitro may be indicative of the generation of metastasis in vivo. E. g., MDA-MB231-luc-D3H2LN […] breast cancer cells display indeed both higher invasion into collagen in vitro and a higher metastatic potential in vivo as compared to MDA-MB231 cells (from which they were derived). Using these MDA-MB231-luc-D3H2LN cells as a model, the aim of the experiment described here is to identify drug compounds that inhibit the invasion of tumor cells into collagen in vitro, therefore potentially inhibiting also the generation of tumor metastasis in vivo.
# Step 1: Preparation of cells at the bottom of a collagen gel: Cells are suspended in a liquid collagen solution (4° C.), distributed into BSA-coated wells, and then collected at the bottom of the wells by centrifugation. The collagen is then solidified by incubation at 37° C. The BSA coating improves the adhesion of the collagen gel.
# Step 2: Pre-treatment with the compounds to be tested: Concentrated drug solutions are then added on top of the collagen, and cells are pre-incubated for 24 h with the drugs at low serum conditions (0.025% FBS).
# Step 3: Stimulation of invasion: Medium with 5% FBS is then added in order to stimulate invasion of the cells into the collagen gel.
# Step 4: Fixation and staining: Following another 24 h incubation, cells are fixed and nuclei are stained.
# Step 5: Analysis: Finally, plates are analyzed using an automated microscope. Fluorescent beads that have been included into the BSA coating serve to detect the bottom of the wells. Pictures of the stained nuclei are taken at the same level (0 μm) as well as 25 μm and 50 μm above.
# Invasion assay: Negative control: No drug (just DMSO at equivalent concentration). Positive control: 10 μM Y-27632. To avoid edge effects, only the 60 central wells B2-G11 are used; lines A and H as well as columns 1 and 12 remain free. Each drug is tested at least in triplicate. The positive and negative controls should be tested in double triplicates at different positions on each plate. Typical plate map (−=negative control, +=positive control, 1-16=16 different drug compounds):
# for each well, calculate the mean invasion distance of the counted cells: (25 μm×number of cells at 25 μm+50 μm×number cells at 50 μm)/sum of cells at 0, 25 and 50 μm
# for all four parameters (number of cells at 0 μm, number of cells at 25 μm, number of cells at 50 μm, mean invasion distance of the counted cells), calculate means, SD and CV of the replicates (n=6 for the controls; n=3 for the samples)
# invalidate any replicate with a CV≥50% (compound to be re-tested, or assay to be repeated if CV≥50% for the untreated negative control or the compound Y-27632-treated positive control). Y27632 is a selective inhibitor of the Rho-associated protein kinase p160ROCK of the following formula
# validate the assay only if the mean invasion distance of the cells treated with 10 μM Y-27632 (positive control) is decreased by ≥40% as compared to the untreated negative control
# Anti-invasive effect in MDA-MB231 breast cancer cells: 0.5 fold effect compared to 10 μM Y-27632 ref. compound.
# [2] = test system: p53 (wild-type p53 MCF7 cells); assay: p53 and Δ133p53 mRNA level by RT-qPCR in MCF7 cells; details: 5 μM, 48 hours, vs DMSO
# Method: (§1) The compounds of the invention have been tested according to the following pharmacological test and the three compounds have been more particularly tested: (40), (1) and (45), all diluted in DMSO. Their effects were thus compared to cells treated with DMSO. A positive control was used, TG003, a benzothiazole compound known to alter splicing through the inhibition of Clk/Sty family activity (Sigma, ref: T5575).
# (§2) Two breast cancer cell lines have been treated with 5 μM of drugs for 48 hours: wild-type p53 MCF7 cells and mutant p53 (R280K) MDA-MB-231-Luc-D3H2N provided by Caliper Life Science (parental Line source: American Type Culture collection). The MDA-MB-231-Luc-D3H2N cells were maintained in two different media during treatment: a DMEM supplemented with 10% foetal calf serum (FCS) and a FCS-free medium for 24 hours followed by 24 hours in a complete medium. The MC7 cells were maintained in a DMEM/FCS 10% medium.
# (§3) Cells were harvested after 48 hours of treatment. Total RNAs (RNeasy Mini-Kit, Qiagen) and proteins (NuPage LDS 1×, Invitrogen) were extracted to analyse mRNA expression by nested RT-PCR or RT-qPCR and protein expression by Western Blot.
# (§4) Analysis of p53 expression was assessed both at mRNA (full-length and truncated, Δ133p53 isoforms) and protein (full-length) levels by RT-qPCR and Western Blot, respectively.
# (§5) The p53 isoform cDNA being too long to be specifically quantified by RT-qPCR, a semi-quantitative RT-PCR method was therefore used, requiring high quality total RNA 28S/18S ratio (>1.5). After reverse-transcription of 500 ng of total RNA using random primers, actin cDNA was amplified by PCR to confirm reverse-transcription efficiency. 0.5 μg of total RNA from each tumour sample was reverse-transcribed (AMV RT, 45 C, random primer) and cDNA quality confirmed by amplification of actin by PCR in 30 cycles. p53 isoform cDNA was amplified by 2 nested PCR of 30 cycles using primers specific of each isoforms as described in Bourdon et al. (Genes Dev., 2005, 19: 2122). Tumours were considered to express each p53 isoform after sequencing of the corresponding PCR fragment.
# [3] = test system: p53 (mutant p53 (R280K) MDA-MB-231-Luc-D3H2N cells); assay: p53 mRNA level by RT-qPCR in MDA-MB-231-Luc-D3H2N cells; details: 5 μM, 48 hours
# Method: as §1, §2, §3, §4, §5
# [4] = test system: p53 (mutant p53 (R280K) MDA-MB-231-Luc-D3H2N cells); assay: p53 protein expression by Western Blot (4 antibodies) in MDA-MB-231-Luc-D3H2N cells; details: 5 μM, 48 hours
# Method: as §1, §2, §3
# p53 protein expression was determined using a panel of 4 different antibodies, namely DO1, SAPLI, CMI and DO12 as described in Bourdon et al. (Genes Dev., 2005, 19: 2122), to avoid problem of detection due to post-translational modification.
# The amount of total proteins in each extract was quantified using BCA kit (promega). 8% SDS-PAGE gels were used. Equal amount (30 μg) of proteins was loaded on each lane. Proteins were then transferred electrophoretically on nitrocellulose membrane. Membranes were blocked in TBS/0.1% Tween 20 containing 3% milk for one hour and then incubated overnight with the primary antibodies diluted in TBS/0.1% Tween 20 containing 3% milk. After several washes in TBS/Tween, membranes were incubated with anti-rabbit Ig antibodies linked to HRP. Membranes were developed with ECL according to the manufacturer's instructions.
# Scanned autoradiographs were quantified using AIDA/2D densitometry software.
# [5] = test system: p53-target genes Hdm2, Bcl-2, p21 (mutant p53 MDA-MB-231-Luc-D3H2N cells); assay: p53 transcriptional activity: p53-target gene expression by Western-blot in MDA-MB-231-Luc-D3H2N cells; details: 5 μM, 48 hours
# Method: as §1, §2, §3
# Analysis of p53 transcriptional activity was assessed through analysis of p53-target gene expression by Western-blot. Four p53-target genes were studied: Hdm2, Bcl-2, p21 and Bax. Hdm2 is known to bind p53 and to negatively regulate p53 activity and stability. p21 is known to mediate p53 dependent cycle arrest. Bcl 2 is known to have an anti-proliferative effect and an apoptotic protective effect, while Bax is known to have a pro-apoptic effect. Bax was not detected in both MCF7 and MDA-MB-231-Luc-D3H2N cells, while p21 was not detected in MDA-MB-231-Luc-D3H2N cells maintained in FCS-free medium. The Western-blot was performed as above described using the antibodies described in Bourdon et al., Genes Dev., 2005, 19: 2122.
# [6] = test system: p53 isoforms produced by alternative splicing (wild-type p53 MCF7 cells); assay: p53 isoforms (α, β, γ) expression at mRNA level in MCF7 cells; details: 5 μM, 48 hours, RT-qPCR
# Method: as §2, §3
# (§6) Expression of p53 isoforms produced by alternative splicing (α, β and γ) was analysed at mRNA levels by RT-qPCR using primers/probe specific of each C-terminal variants. The α-forms are the most abundant forms. In the low abundant forms, β-forms are more expressed than γ-forms.
# as §5, with “A semi-quantitative” for “The p53 isoform cDNA being too long to be specifically quantified by RT-qPCR, a semi-quantitative”, “method” for “method was therefore used,”, “RT, 45C,” for “RT, 45 C,”, “described by” for “described in”
# [7] = test system: p53 isoforms produced by alternative splicing (mutant p53 MDA-MB-231-Luc-D3H2N cells); assay: p53 isoforms (α, β, γ) expression at mRNA level in MDA-MB-231-Luc-D3H2N cells; details: 5 μM, 48 hours
# Method: as §2, §3, §6
# as §5, with “A semi-quantitative” for “The p53 isoform cDNA being too long to be specifically quantified by RT-qPCR, a semi-quantitative”, “method” for “method was therefore used,”, “RT, 45C,” for “RT, 45 C,”, “described by” for “described in”
# [8] = mutant p53 MDA-MB-231-Luc-D3H2N cells in FCS-free medium
# [9] = mutant p53 MDA-MB-231-Luc-D3H2N cells in normal medium
# [10] = mutant p53 MDA-MB-231-Luc-D3H2N cells in FCS-free medium, RT-qPCR
# [11] = mutant p53 MDA-MB-231-Luc-D3H2N cells in normal medium, RT-qPCR
structure (smiles),measurement,setting,value
CCN(CC)CCCNC(=O)c1ccccc1Nc1cccc(/C=C/c2ccncc2)c1 [Compound 129],IC (0.5-fold effect of 10 uM Y-27632),[1],0.2 µM
"CCN(CC)CCCNS(=O)(=O)c1cccc(Nc2cccc(/C=C/c3ccncc3)c2)c1 [Compound 18, N-(3-diethylaminopropyl)-3-[3-(2-pyridin-4-ylvinyl)phenylamino]benzenesulfonamide]",IC (0.5-fold effect of 10 uM Y-27632),[1],0.55 ± 0.05 µM
O=S(=O)(NCCCN1CCOCC1)c1cccc(Nc2cccc(/C=C/c3ccncc3)c2)c1 [Compound 16],IC (0.5-fold effect of 10 uM Y-27632),[1],0.75 ± 0.19 µM
O=S(=O)(NCCN1CCCC1)c1cccc(Nc2cccc(/C=C/c3ccncc3)c2)c1 [Compound 25],IC (0.5-fold effect of 10 uM Y-27632),[1],0.5 ± 0.21 µM
"NC(=O)c1cccc(Nc2cccc(/C=C/c3ccncc3)c2)c1 [Compound 9, 3-[3-(2-pyridin-4-ylvinyl)phenylamino]benzamide]",IC (0.5-fold effect of 10 uM Y-27632),[1],1.1 ± 0.4 µM
CCN(CC)CCCNC(=O)c1ccc(Nc2cccc(/C=C/c3ccncc3)c2)c(C)c1 [Compound 6],IC (0.5-fold effect of 10 uM Y-27632),[1],0.7 ± 0.1 µM
CCN(CC)CCCNC(=O)c1ccccc1Nc1ccc(OCc2ccccc2)cc1 [Compound 50],IC (0.5-fold effect of 10 uM Y-27632),[1],1 µM
O=S(=O)(NCCN1CCCCC1)c1cccc(Nc2cccc(/C=C/c3ccncc3)c2)c1 [Compound 24],IC (0.5-fold effect of 10 uM Y-27632),[1],0.64 ± 0.2 µM
"CC(C)CCNC(=O)c1cccc(Nc2cccc(/C=C/c3ccncc3)c2)c1 [Compound 1, (E)-N-(3-methylbutyl)-3-[3-(2-pyridin-4-ylvinyl)phenylamino]benzamide]","total p53 expression (total isoforms, TA) at mRNA levels",[2],did not change
same,Δ133p53 mRNA level,[2],increased
same,"p53 expression at mRNA levels (total isoforms, TA): decreased or not",[3]; [8],decreased
same,"p53 expression at mRNA levels (total isoforms, TA)",[3]; [9],significant decrease
same,p53 protein levels (full-length),[4]; [8],did not change
same,p53 protein levels (full-length),[4]; [9],did not change
same,expression of Hdm2 (p53-target gene),[5]; [8],slight decrease
same,p53-target genes expression,[5]; [9],did not affect
same,expression of p53 β-forms (mRNA),[6],tend to increase
same,expression of p53 γ-forms (mRNA),[6],tend to increase
same,p53 α-form expression at mRNA levels,[6],did not change
same,expression of p53 γ-forms (mRNA),[7]; [10],no significant increase
same,p53 α-form expression at mRNA levels,[7]; [10],did not change
same,p53 γ-forms expression by nested RT-PCR,[7]; [8],restoration
same,expression of p53 β-forms (mRNA),[7]; [11],tend to increase
same,expression of p53 γ-forms (mRNA),[7]; [11],tend to increase
same,p53 α-form expression at mRNA levels,[7]; [11],did not change
same,p53 γ-forms expression by nested RT-PCR,[7]; [9],restoration
O=C(NCCCN1CCCCC1)c1cccc(Nc2cccc(/C=C/c3ccncc3)c2)c1 [Compound 19],IC (0.5-fold effect of 10 uM Y-27632),[1],0.25 ± 0.05 µM
O=C(NCCCN1CCCC1)c1cccc(Nc2cccc(/C=C/c3ccncc3)c2)c1 [Compound 22],IC (0.5-fold effect of 10 uM Y-27632),[1],0.3 ± 0.05 µM
O=S(=O)(NCCCN1CCCCC1)c1cccc(Nc2cccc(/C=C/c3ccncc3)c2)c1 [Compound 17],IC (0.5-fold effect of 10 uM Y-27632),[1],0.83 ± 0.09 µM
CCN(CC)CCCNC(=O)c1ccccc1Nc1cccc(OC(F)(F)F)c1 [Compound 49],IC (0.5-fold effect of 10 uM Y-27632),[1],0.13 ± 0.3 µM
"CN1CCN(CCCNC(=O)c2cccc(Nc3cccc(/C=C/c4ccncc4)c3)c2)CC1 [Compound 21, (E)-[3-(4-methyl-piperazinyl)-propyl]-3-[3-(2-pyridin-4-ylvinyl)-phenylamino]-benzamide]",IC (0.5-fold effect of 10 uM Y-27632),[1],0.17 ± 0.04 µM
